Experiments:
[1] = test system: human induced pluripotent stem cells; test: Etoposide sensitivity assay (ESA), Annexin V/PI flow cytometry; type: cell-based; settings: for EC50: Homo sapiens, 24 h
Experimental: An assay for assessing pluripotency or for releasing a stem cell population for clinical diagnostic or therapeutic use can include obtaining a series of cell samples from the population being assessed. Each of these samples can be contacted with an increasing concentration of one or more DNA damaging agent(s). Any appropriate length of time can be used for the incubation period. For example, the cells can be incubated as 37° C. for between about 30 minutes and about 48 hours (e.g., between about 30 minutes and about 36 hours, between about 30 minutes and about 24 hours, or between about 1 hour and about 24 hours). After this contacting step, the cells can be evaluated using, for example, flow cytometry to determine how susceptible the cells are to apoptosis. In some cases, flow cytometry can be carried out as follows. Briefly, pluripotent stem cells can be seeded in plates (e.g., 24 well plates) and treated with etoposide (Sigma-Aldrich) or DMSO for a period of time (e.g., about 24 hours) at, for example, about 50% confluence. Media and cells can be stained with Annexin V FITC/PI and analyzed via flow cytometry (e.g., via a Gallios (Beckman Coulter) flow cytometer). Data analysis can be performed using Kaluza (Beckman Coulter) software and normalized by dividing the triplicate means (viable non-staining cells) by the corresponding DMSO control. Human pluripotent stem cell clones were assessed for etoposide sensitivity as follows. Mechanically processed hiPSC's were seeded onto a 24-well plate (1×60 mm dish: 1×24-well plate), maintained for 3-5 days, and subsequently treated with etoposide (1, 10, 50, 100, 250, 500, and 1,000 nM, all performed in triplicate wells) or vehicle control (DMSO) for 24 hours. Conditioned media was collected into appropriately labeled 12×75 mm flow tubes, and 200 μL of TryPLE was added to each well. Following a brief incubation at 37° C. (5-10 minutes), 1 mL of pre-warmed (37° C.) FAC's buffer (4 mM EDTA, 0.5% FBS, 1×DPBS pH 7.4 w/o Ca^2+, Mg^2+) was added to each well. The total well contents were transferred to their corresponding conditioned media tubes, and all tubes were spun down at 400×G for 5 minutes. Tubes were washed 1× with ice-cold Annexin Binding Buffer (ABB, 10 mM HEPES, 2.5 mM CaCl2, 140 mM NaCl, pH 7.4) and stained with Annexin-FITC (BD 556420, 5 μL in 100 μL total ABB per tube) for 30 minutes on ice while protected from light. All tubes were washed 1× in ABB, and the resulting cell pellets were resuspended in 400 μL of ABB supplemented with 1 μL of 1 mg/mL propidium iodide (Sigma-Aldrich, P4864). Samples were immediately assayed by flow cytometry (Gallios, Beckman Coulter), and data were subsequently analyzed for percent viability using Kaluza software (Beckman Coulter).

[2] = test system: cardiomyocytes differentiated from hiPSC's; test: Etoposide sensitivity assay during cardiomyocyte differentiation of hiPSC's; type: cell-based, human; settings: mature, beating cardiomyocytes (Day 9)

Compound: COc1cc([C@@H]2c3cc4c(cc3[C@@H](O[C@@H]3O[C@@H]5CO[C@@H](C)O[C@H]5[C@H](O)[C@H]3O)[C@H]3COC(=O)[C@H]23)OCO4)cc(OC)c1O [etoposide]
- EC50 ([1]; cleaned (C) hiPSC cultures after removal of poor quality clones/cells, 24 hours): < 300 nM
- EC50 ([1]; poor quality clones/cells from unclean (UC) hiPSC cultures, feeder free): > 300 nM
- etoposide sensitivity ([1]; Sendai virus derived hiPSC clones compared to lentivirus reprogrammed clones, 126 clones): significant decrease in etoposide sensitivity
- etoposide sensitivity ([1]; hiPSC clones of poor quality and cellular differentiation, feeder free conditions): reduced or negligible etoposide sensitivity
- sensitivity to etoposide ([1]; hiPSC lines RT 4.1 and RT 6.21 compared with other hiPSC lines, 24 hours): greatest sensitivity
- sensitivity to etoposide [2]: near complete lack of sensitivity
